Assay results from patent US20230312587A1, “PTERIDINONE COMPOUNDS AND USES THEREOF” (Vertex Pharmaceutical Incorporated, priority 2018, published 2023).

Test system: β-catenin-TCF-mediated reporter transcription activity in Colo 205 cells
Assay: Colo 205 reporter assay (TCF/LEF luciferase)
Assay type: cell-based
Settings: Colo 205 TCF/LEF luciferase reporter, five hours after addition of compound; read-out: TCF reporter Colo205 IC50
In short: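 Luciferase signal from a TCF/LEF-driven reporter, stably integrated in Colo 205 colon cancer cells, was measured 5 h after compound addition.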

IC50 [nM] | Structure (SMILES)
1000 to 5000 | COCC1(C)C(=O)Nc2c(C)nc(N[C@H]3C[C@H](Oc4cnc(C(F)(F)F)nc4)C3)nc2N1C (relative stereo) [Compound 710, 7-(methoxymethyl)-4,7,8-trimethyl-2-((trans-3-((2-(trifluoromethyl)pyrimidin-5-yl)oxy)cyclobutyl)amino)-7,8-dihydropteridin-6(5H)-one]
1000 to 5000 | Cc1nc(N[C@H]2C[C@@H](Cn3nccc3C(F)(F)F)C2)nc2c1NC(=O)[C@H](CO)N2C [Compound 743, (S)-7-(hydroxymethyl)-4,8-dimethyl-2-(((1s,3R)-3-((5-(trifluoromethyl)-1H-pyrazol-1-yl)methyl)cyclobutyl)amino)-7,8-dihydropteridin-6(5H)-one]
≥ 5000 | C[C@H]1C(=O)Nc2cnc(NC3CC(C)(OCc4cc(F)c(F)c(F)c4)C3)nc2N1C (stereo in doubt) [Compound 289, (S)-7,8-dimethyl-2-((cis-3-methyl-3-((3,4,5-trifluorobenzyl)oxy)cyclobutyl)amino)-7,8-dihydropteridin-6(5H)-one]

Structure (SMILES) | IC50 [nM]
Cc1nc(N[C@H]2C[C@H](Oc3cc(F)c(F)c(F)c3)C2)nc2c1NC(=O)[C@H]([C@H](C)OC(C)(C)C)N2C [Compound 745, (S)-7-((S)-1-(tert-butoxy)ethyl)-4,8-dimethyl-2-(((1r,3S)-3-(3,4,5-trifluorophenoxy)cyclobutyl)amino)-7,8-dihydropteridin-6(5H)-one] | 300 to 1000

Same assay, conditions: Homo sapiens, COLO 205, 5 h, Colo 205 TCF/LEF luciferase reporter, five hours after addition of compound; read-out: TCF reporter Colo205 IC50

IC50 [nM] | Structure (SMILES)
300 to 1000 | Cc1nc(NCc2cnn(Cc3ccc(F)nc3)c2)nc2c1N(C)C(=O)[C@H](C)N2C [Compound 82, (7S)-2-(((1-((6-fluoropyridin-3-yl)methyl)-1H-pyrazol-4-yl)methyl)amino)-4,5,7,8-tetramethyl-7,8-dihydropteridin-6(5H)-one]
< 300 | Cc1nc(NCc2cnn(C[C@@H](C)c3ccc(F)cc3)c2)nc2c1NC(=O)[C@H](C)N2C [Compound 95, (7S)-2-(((1-((S)-2-(4-fluorophenyl)propyl)-1H-pyrazol-4-yl)methyl)amino)-4,7,8-trimethyl-7,8-dihydropteridin-6(5H)-one]
< 300 | C[C@H]1C(=O)Nc2cnc(N[C@H]3C[C@H](Oc4cc(F)c(F)c(F)c4)C3)nc2N1C [Compound 249, (7S)-7,8-dimethyl-2-((trans-3-(3,4,5-trifluorophenoxy)cyclobutyl)amino)-7,8-dihydropteridin-6(5H)-one]
300 to 1000 | Cc1cc(C(F)(F)F)n(C[C@H]2C[C@@H](Nc3nc(C)c4c(n3)N(C)[C@@H](C(C)C)C(=O)N4)C2)n1 [Compound 582, (S)-7-isopropyl-4,8-dimethyl-2-((cis-3-((3-methyl-5-(trifluoromethyl)-1H-pyrazol-1-yl)methyl)cyclobutyl)amino)-7,8-dihydropteridin-6(5H)-one]
< 300 | Cc1nc(NCc2cnn(Cc3ccc(OCC(F)(F)F)nc3)c2)nc2c1NC(=O)[C@H](C1CC1)N2C [Compound 435, (7S)-7-cyclopropyl-4,8-dimethyl-2-(((1-((6-(2,2,2-trifluoroethoxy)pyridin-3-yl)methyl)-1H-pyrazol-4-yl)methyl)amino)-7,8-dihydropteridin-6(5H)-one]
< 300 | CCN1C(=O)[C@H](C)N(C)c2nc(N[C@H]3C[C@H](Oc4cc(F)c(F)c(F)c4)C3)nc(C)c21 [Compound 312, (7S)-5-ethyl-4,7,8-trimethyl-2-((trans-3-(3,4,5-trifluorophenoxy)-cyclobutyl)amino)-7,8-dihydropteridin-6(5H)-one]
< 300 | Cc1nc(NCc2cnn(Cc3c(F)cc(F)cc3F)c2)nc2c1N(C)C(=O)[C@H](C)N2C [Compound 18, (7S)-4,5,7,8-tetramethyl-2-(((1-(2,4,6-trifluorobenzyl)-1H-pyrazol-4-yl)methyl)amino)-7,8-dihydropteridin-6(5H)-one]
≥ 5000 | Cc1nc(NC2CN(C(=O)C3CCCCO3)C2)nc2c1NC(=O)[C@H](C(C)C)N2C (stereo partly drawn) [Compound 611, (7S)-7-isopropyl-4,8-dimethyl-2-((1-(tetrahydro-2H-pyran-2-carbonyl)azetidin-3-yl)amino)-7,8-dihydropteridin-6(5H)-one]
< 300 | CCN1C(=O)[C@](C)(CC)N(CC)c2nc(NCc3cnn(Cc4cc(F)c(F)c(F)c4)c3)ncc21 [Compound 35, (7S)-5,7,8-triethyl-7-methyl-2-(((1-(3,4,5-trifluorobenzyl)-1H-pyrazol-4-yl)methyl)amino)-7,8-dihydropteridin-6(5H)-one]
< 300 | CC[C@H]1C(=O)Nc2c(C)nc(NCc3cnn(Cc4ccc(C(F)(F)F)o4)c3)nc2N1C [Compound 516, (S)-7-ethyl-4,8-dimethyl-2-(((1-((5-(trifluoromethyl)furan-2-yl)methyl)-1H-pyrazol-4-yl)methyl)amino)-7,8-dihydropteridin-6(5H)-one]
< 300 | Cc1nc(N[C@H]2C[C@H](Oc3ccc(OC(F)(F)F)c(F)c3)C2)nc2c1NC(=O)[C@H](C)N2C [Compound 359, (7S)-2-((trans-3-(3-fluoro-4-(trifluoromethoxy)phenoxy)cyclobutyl)amino)-4,7,8-trimethyl-7,8-dihydropteridin-6(5H)-one]
300 to 1000 | Cc1nc(NCc2cnn(Cc3ccnc(Cl)c3)c2)nc2c1NC(=O)[C@H](C)N2C [Compound 185, (7S)-2-(((1-((2-chloropyridin-4-yl)methyl)-1H-pyrazol-4-yl)methyl)amino)-4,7,8-trimethyl-7,8-dihydropteridin-6(5H)-one]
≥ 5000 | C[C@H]1C(=O)Nc2cnc(NCc3ccc(-c4ccc(F)cc4)o3)nc2N1C [Compound 43, (7S)-2-(((5-(4-fluorophenyl)furan-2-yl)methyl)amino)-7,8-dimethyl-7,8-dihydropteridin-6(5H)-one]
< 300 | Cc1nc(NC2CN(Cc3cc(F)c(F)c(F)c3)C2)nc2c1NC(=O)[C@H](C(C)C)N2C [Compound 591, (S)-7-isopropyl-4,8-dimethyl-2-((1-(3,4,5-trifluorobenzyl)azetidin-3-yl)amino)-7,8-dihydropteridin-6(5H)-one]
< 300 | CC[C@H]1C(=O)Nc2c(C)nc(NCc3cnn(Cc4cnc(Cl)c(F)c4)c3)nc2N1C [Compound 426, (7S)-2-(((1-((6-chloro-5-fluoropyridin-3-yl)methyl)-1H-pyrazol-4-yl)methyl)amino)-7-ethyl-4,8-dimethyl-7,8-dihydropteridin-6(5H)-one]
1000 to 5000 | Cc1nc(NC2CN(C(=O)Nc3cc(F)c(F)c(F)c3)C2)nc2c1NC(=O)[C@H](C(C)C)N2C [Compound 564, (7S)-3-((7-isopropyl-4,8-dimethyl-6-oxo-5,6,7,8-tetrahydropteridin-2-yl)amino)-N-(3,4,5-trifluorophenyl)azetidine-1-carboxamide]
< 300 | Cc1nc(NCc2cnn(CC3CC(F)(F)C3)c2)nc2c1NC(=O)[C@H](C)N2C [Compound 61, (7S)-2-(((1-((3,3-difluorocyclobutyl)methyl)-1H-pyrazol-4-yl)methyl)amino)-4,7,8-trimethyl-7,8-dihydropteridin-6(5H)-one]
< 300 | Cc1nc(N[C@H]2C[C@@H](Nc3ccc(C(F)(F)F)nc3)C2)nc2c1NC(=O)[C@H](C(C)C)N2C [Compound 586, (S)-7-isopropyl-4,8-dimethyl-2-((cis-3-((6-(trifluoromethyl)pyridin-3-yl)amino)cyclobutyl)amino)-7,8-dihydropteridin-6(5H)-one]
300 to 1000 | Cc1nc(NC2CN(C(=O)c3cc(F)c(F)c(F)c3)C2)nc2c1NC(=O)[C@H](C)N2C [Compound 740, (S)-4,7,8-trimethyl-2-((1-(3,4,5-trifluorobenzoyl)azetidin-3-yl)amino)-7,8-dihydropteridin-6(5H)-one]
1000 to 5000 | Cc1nc(N[C@H]2CC[C@H](N(C)c3ccc(C(F)(F)F)cc3)C2)nc2c1NC(=O)[C@H](C(C)C)N2C [Compound 503, (S)-7-isopropyl-4,8-dimethyl-2-(((1S,3S)-3-(methyl(4-(trifluoromethyl)phenyl)amino)cyclopentyl)amino)-7,8-dihydropteridin-6(5H)-one]
< 300 | Cc1nc(NCc2cnn(Cc3ccc(OC(F)(F)F)cc3)c2)nc2c1NC(=O)[C@H](C(C)C)N2C [Compound 467, (S)-7-isopropyl-4,8-dimethyl-2-(((1-(4-(trifluoromethoxy)benzyl)-1H-pyrazol-4-yl)methyl)amino)-7,8-dihydropteridin-6(5H)-one]
< 300 | CC[C@H]1C(=O)Nc2c(C)nc(NCc3cnn(Cc4ccc(F)nc4)c3)nc2N1C [Compound 389, (7S)-7-Ethyl-2-(((1-((6-fluoropyridin-3-yl)methyl)-1H-pyrazol-4-yl)methyl)amino)-4,8-dimethyl-7,8-dihydropteridin-6(5H)-one]
≥ 5000 | Cc1nc(CC(=O)N2CC(Nc3nc(C)c4c(n3)N(C)[C@@H](C(C)C)C(=O)N4)C2)c(C)s1 [Compound 628, (S)-2-((1-(2-(2,5-dimethylthiazol-4-yl)acetyl)azetidin-3-yl)amino)-7-isopropyl-4,8-dimethyl-7,8-dihydropteridin-6(5H)-one]
1000 to 5000 | Cc1nc(NCc2cnn(C[C@@H](O)c3ccc(F)cc3)c2)nc2c1NC(=O)[C@H](C)N2C [Compound 131, (7S)-2-[[1-[(2S)-2-(4-fluorophenyl)-2-hydroxy-ethyl]pyrazol-4-yl]methylamino]-4,7,8-trimethyl-5,7-dihydropteridin-6-one]
≥ 5000 | Cc1ncc(Cn2cc(CNc3ncc4c(n3)N(C)[C@@H](C)C(=O)N4)cn2)cn1 [Compound 166, (7S)-7,8-dimethyl-2-(((1-((2-methylpyrimidin-5-yl)methyl)-1H-pyrazol-4-yl)methyl)amino)-7,8-dihydropteridin-6(5H)-one]

Same assay, conditions: Homo sapiens, COLO 205, 5 h, Colo 205 cells with stably transfected TCF/LEF luciferase reporter; five hours after addition of compound; read-out: TCF reporter Colo205

IC50 [nM] | Structure (SMILES)
≥ 5000 | Cc1nc(N(Cc2cnn(Cc3ccc(C(F)(F)F)nc3)c2)C(=O)[C@@H](N)C(C)C)nc2c1NC(=O)[C@H](C)N2C [Compound 402, (S)-2-amino-3-methyl-N-((1-((6-(trifluoromethyl)pyridin-3-yl)methyl)-1H-pyrazol-4-yl)methyl)-N-((S)-4,7,8-trimethyl-6-oxo-5,6,7,8-tetrahydropteridin-2-yl)butanamide]
